Consider 30 compounds from paper PMC10562458, “Identification of side effects of COVID-19 drug candidates on embryogenesis using an integrated zebrafish screening platform” (Scientific Reports, 2023).

One data set relates to zebrafish embryos. Particulars: for Mortality rate (MR) / Pericardial effusion (percentage of treated larvae): 1 µM; for Mortality rate (MR): average percentage of larvae that died before imaging; for Effect on heart functionality: clinically relevant doses (Cmax); for Pericardial Effusion Rate(%): zebrafish, in vivo; for Overall effect on embryonic development / cardiovascular system: screening concentration; for Overall effect on embryonic development: clinically relevant concentrations (Cmax).

A further data set concerns zebrafish larvae. Nature of the data set: Behavioral assay (bright/dark locomotion test, DanioVision). Particulars: for Effect on swimming behavior: screening concentration 1 µM (Ivermectin 0.5 µM).
Data set [1] has as its system inflammatory and immune response gene expression. The data set is classed as in vivo, zebrafish (Danio rerio). The note with it: for Inflammatory response related gene expression upon SARS-CoV-2 spike protein treatment: with spike protein; for Inflammatory gene response in the absence of spike protein: without spike protein, vs DMSO.
The conditions of data set [2]: read-out: Cmax (highest concentration detected in blood plasma), humans; cited from earlier work.
Where [3] appears, read: with SARS-CoV-2 spike protein, drug 48 h.

“Also recorded” adds a separate entry of the source. Where two headings read alike, the source gives them in different places. *1 amine or outer side, *2 acyl side, *3 side chain or, on linkers, in order; H or OH if unused. Where a SMILES comes first, the peptide text is derived from it. Bridges are numbered along the chain shown (N, C = ends). [ ]: non-standard residue; d: D form. The star is where a group is joined. pTerphenylCO(4''-OnC5H11) = CCCCCOc1ccc(-c2ccc(-c3ccc(C(=O)*)cc3)cc2)cc1; Orn(4R-OH,5R-OH) = O=C([C@H](C[C@@H](O)[C@@H](O)N[*:3])N[*:1])[*:2]; hTyr(3S-OH,4S-OH) = N[C@H](C(=O)O)[C@H](O)[C@@H](O)c1ccc(O)cc1; Pro(3S-OH,4S-Me) = C[C@H]1CN[C@H](C(=O)O)[C@H]1O; Hyp = O=C(O)[C@@H]1C[C@@H](O)CN1

Take 17α-Hydroxyprogesterone: the “Effect on body length” value in the data set with zebrafish embryos (1 µM screening) is recorded as “larval overgrowth”.
On to `S=C(NCc1ccc2c(c1)OCO2)N1CCN(c2ncnc3c2oc2ccccc23)CC1` [Amuvatinib], for which the “Effect on swimming behavior” value with zebrafish larvae was “effect”.
Regarding `CCCCCOc1ccc(-c2ccc(-c3ccc(C(=O)N[C@H]4C[C@@H](O)[C@@H](O)NC(=O)[C@@H]5[C@@H](O)[C@@H](C)CN5C(=O)[C@H]([C@@H](C)O)NC(=O)[C@H]([C@H](O)[C@@H](O)c5ccc(O)cc5)NC(=O)[C@@H]5C[C@@H](O)CN5C(=O)[C@H]([C@@H](C)O)NC4=O)cc3)cc2)cc1` [Anidulafungin] ({pTerphenylCO(4''-OnC5H11)}-[Orn(4R-OH,5R-OH)]T[Hyp][hTyr(3S-OH,4S-OH)]T[Pro(3S-OH,4S-Me)]; lactam 1-C), the “Effect on swimming behavior” value in the data set with zebrafish larvae is recorded as “effect”.
With `Cc1cccc(/C=N/Nc2cc(N3CCOCC3)nc(OCCc3ccccn3)n2)c1` [Apilimod], in the data set on zebrafish embryos, the “Mortality rate (MR)” value is reported as “over 10%”. Also, the “Effect on swimming behavior” value with zebrafish larvae is “effect”.
In the case of `COc1ccc(CCN2CCC(Nc3nc4ccccc4n3Cc3ccc(F)cc3)CC2)cc1` [Astemizole], in the data set on zebrafish embryos, the “Pericardial effusion (percentage of treated larvae)” value was determined as 94.4% and the “Mortality rate (MR)” value is “over 10%”. For the same compound, in the data set on zebrafish embryos (1 µM screening), the “Effect on ISV area” value is on record as “negative effects” and the “Effect on body length” value is recorded as “highest reduction”.
For the compound `CCS(=O)(=O)N1CC(CC#N)(n2cc(-c3ncnc4[nH]ccc34)cn2)C1` [Baricitinib], the ccl20a.3 levels entry in data set [1] (setting [3]) is given as “significantly reduced”. In data set [1], the “Inflammatory response related gene expression upon SARS-CoV-2 spike protein treatment” value was “counteracted” and the “Inflammatory gene response in the absence of spike protein” value (“Inflammatory gene response” for short) is “alter the inflammatory gene response”. For the same compound, in the data set on zebrafish embryos (at Cmax, mean of morphological and behavioral assay), the “Mean Mortality(%)” value is reported as 18.3%. Also, in the data set with zebrafish embryos, the “Effect on heart functionality” value was “reduced heart functionality” and the “Pericardial Effusion Rate(%)” value is recorded as 9.30%. In addition, the Cmax in data set [2] is 144 nM. The “Effect on motility / swimming behavior / embryo activity” value in the data set on zebrafish larvae (at Cmax) is reported as “effects on embryo activity; also recorded: alterations; also recorded: affected”.
Take `Nc1nc(Nc2ccc3c(c2)CC[C@@H](N2CCCC2)CC3)nn1-c1cc2c(nn1)-c1ccccc1CCC2` [Bemcentinib]: the “Effect on swimming behavior” value in the data set with zebrafish larvae was “effect”.
Turning to `COc1cc2nccc(Oc3ccc(NC(=O)C4(C(=O)Nc5ccc(F)cc5)CC4)cc3)c2cc1OC` [Cabozantinib], the “Effect on ISV formation” value in the data set on zebrafish embryos (1 µM screening) is “strong inhibition”. Besides, the “Effect on swimming behavior” value in the data set on zebrafish larvae is “effect”.
Consider `CN(C)C(=O)COC(=O)Cc1ccc(OC(=O)c2ccc(NC(=N)N)cc2)cc1` [Camostat], for which the “Effect on swimming behavior” value in the data set on zebrafish larvae is on record as “effect”.
Still for that read-out and setting: under `CC(C)C[C@H](NC(=O)[C@@H](NC(=O)c1cccc(-c2ccccc2)n1)[C@@H](C)O)B(O)O` [Delanzomib] stands “effect”.
For `NC(=O)c1nc(F)c[nH]c1=O` [Favipiravir], the “Effect on body length” value with zebrafish embryos (1 µM screening) is “mild effect”.
`COc1ccc2cc1Oc1ccc(cc1)C[C@H]1c3cc(c(OC)cc3CCN1C)Oc1c(O)c(OC)cc3c1[C@H](C2)N(C)CC3` [Hanfangchin B]: the “Effect on swimming behavior” value with zebrafish larvae is “effect”.
Take `CCN(CCO)CCCC(C)Nc1ccnc2cc(Cl)ccc12` (stereo not drawn) [Hydroxychloroquine]: in the data set with zebrafish embryos (1 µM screening), the “Effect on ISV area” value is “significant reductions” and the “Effect on ejection fraction” value is listed as “significant reductions”. Further, the “Overall effect on embryonic development / cardiovascular system” value with zebrafish embryos is on record as “mild defects on the cardiovascular system”.
With `Cc1cccc(C)c1OCC(=O)N[C@@H](Cc1ccccc1)[C@@H](O)C[C@H](Cc1ccccc1)NC(=O)[C@H](C(C)C)N1CCCNC1=O` [Lopinavir], in the data set on zebrafish embryos (1 µM screening), the “Effect on ejection fraction” value is listed as “reduced”.
As to `COC(=O)C1=C(C)NC(C)=C(C(=O)OCCN2CCN(C(c3ccccc3)c3ccccc3)CC2)C1c1cccc([N+](=O)[O-])c1` (stereo not drawn) [Manidipine], the “Mortality rate (MR)” value with zebrafish embryos is “over 10%”.
Still for that read-out and setting: to `CO[C@@H]1[C@H](N(C)C(=O)c2ccccc2)C[C@H]2O[C@]1(C)n1c3ccccc3c3c4c(c5c6ccccc6n2c5c31)C(=O)NC4` [Midostaurin] belongs “over 10%”.
Take `CC(C)C(=O)OC[C@H]1O[C@@H](n2ccc(NO)nc2=O)[C@H](O)[C@@H]1O` [Molnupiravir]: in data set [1] (setting [3]), the ccl20a.3 levels result is on record as “significantly reduced”, the il4 expression entry is on record as “successfully downregulated” and the ptg expression entry is “upregulated to control levels”. Further, in data set [1], the “Inflammatory response related gene expression upon SARS-CoV-2 spike protein treatment” value is reported as “counteracted” and the “Inflammatory gene response” value was “alter the inflammatory gene response”. For the same compound, in the data set on zebrafish embryos, the “Overall effect on embryonic development” value was “severe adverse effects” and the “Pericardial Effusion Rate(%)” value is 0.00%. Besides, the Cmax in data set [2] was 40 nM.
For `O=C(Nc1ccc([N+](=O)[O-])cc1Cl)c1cc(Cl)ccc1O` [Niclosamide], the “Mortality rate (MR)” value in the data set with zebrafish embryos is reported as “over 10%”.
For the compound `O=C(Nc1cc(Cl)cc(Cl)c1O)c1c(O)c(Cl)cc(Cl)c1Cl` [Oxyclozanide], the “Effect on swimming behavior” value in the data set with zebrafish larvae is recorded as “effect”.
Regarding `O=c1[nH]c2ccccc2n1C1CCN(CCCC(c2ccc(F)cc2)c2ccc(F)cc2)CC1` [Pimozide], in the data set with zebrafish embryos, the “Pericardial effusion (percentage of treated larvae)” value was 100% and the “Mortality rate (MR)” value is “over 10%”. Moreover, in the data set with zebrafish embryos (1 µM screening), the “Effect on ISV area” value is “negative effects” and the “Effect on body length” value was “highest reduction”.
With `Cc1ccc(C(=O)Nc2ccc(CN3CCN(C)CC3)c(C(F)(F)F)c2)cc1C#Cc1cnc2cccnn12` [Ponatinib], the “Pericardial effusion (percentage of treated larvae)” value with zebrafish embryos is 100%. The “Effect on body length” value in the data set on zebrafish embryos (1 µM screening) is “highest reduction”. Also, the “Effect on swimming behavior” value in the data set with zebrafish larvae is given as “effect”.
As to `C[C@@H](c1nc(-c2ccc(C#N)cc2)cs1)[C@](O)(Cn1cncn1)c1ccc(F)cc1F` [Ravuconazole], the “Effect on swimming behavior” value in the data set with zebrafish larvae is recorded as “effect”.
With `CNC(=O)c1cc(Oc2ccc(NC(=O)Nc3ccc(Cl)c(C(F)(F)F)c3)c(F)c2)ccn1` [Regorafenib], the “Effect on ISV formation” value in the data set on zebrafish embryos (1 µM screening) is listed as “strong inhibition”.
With `CCC(CC)COC(=O)[C@H](C)N[P@](=O)(OC[C@H]1O[C@@](C#N)(c2ccc3c(N)ncnn23)[C@H](O)[C@@H]1O)Oc1ccccc1` [Remdesivir], in data set [1] (setting [3]), the ptg expression entry was “upregulated to control levels”. Further, in data set [1], the “Inflammatory response related gene expression upon SARS-CoV-2 spike protein treatment” value is recorded as “counteracted” and the “Inflammatory gene response” value is recorded as “broadest effect; also recorded: alter the inflammatory gene response”. Moreover, in the data set on zebrafish embryos (at Cmax), the “Effect on ejection fraction” value is “decrease” and the “Effect on heart rate” value is listed as “decrease”. In the data set with zebrafish embryos, the “Overall effect on embryonic development” value is recorded as “severe adverse effects”, the “Effect on heart functionality” value is given as “reduced” and the “Pericardial Effusion Rate(%)” value is reported as 7.69%. The Cmax in data set [2] is 4500 nM.
With `NC(=O)c1ncn([C@@H]2O[C@H](CO)[C@@H](O)[C@H]2O)n1` [Ribavirin], the “Effect on ISV area” value in the data set on zebrafish embryos (1 µM screening) is recorded as “mildly reduced”.
With `CC(C)c1nc(CN(C)C(=O)N[C@H](C(=O)N[C@@H](Cc2ccccc2)C[C@H](O)[C@H](Cc2ccccc2)NC(=O)OCc2cncs2)C(C)C)cs1` [Ritonavir], in data set [1], the “Inflammatory response related gene expression upon SARS-CoV-2 spike protein treatment” value is given as “counteracted” and the “Inflammatory gene response” value was “alter the inflammatory gene response”. In the data set on zebrafish embryos (at Cmax), the “Effect on ejection fraction” value is “altered” and the “Effect on heart rate” value is “altered”. Moreover, in the data set with zebrafish embryos, the “Overall effect on embryonic development” value is recorded as “overall little embryonic alterations” and the “Pericardial Effusion Rate(%)” value worked out at 8.70%. In data set [2], the Cmax is 15200 nM.
For the compound `CNC(=O)c1cc(Oc2ccc(NC(=O)Nc3ccc(Cl)c(C(F)(F)F)c3)cc2)ccn1` [Sorafenib], the “Effect on ISV formation” value in the data set with zebrafish embryos (1 µM screening) is “strong inhibition”.
Consider `C=CC[C@@H]1/C=C(\C)C[C@H](C)C[C@H](OC)[C@H]2O[C@@](O)(C(=O)C(=O)N3CCCC[C@H]3C(=O)O[C@H](/C(C)=C/[C@@H]3CC[C@@H](O)[C@H](OC)C3)[C@H](C)[C@@H](O)CC1=O)[C@H](C)C[C@@H]2OC` [Tacrolimus], for which, in the data set on zebrafish embryos (1 µM screening), the “Effect on ejection fraction” value was “increase”.
Turning to `CCOC(=O)c1c(CSc2ccccc2)n(C)c2cc(Br)c(O)c(CN(C)C)c12` [Umifenovir], the “Effect on ISV area” value in the data set with zebrafish embryos (1 µM screening) is given as “mildly reduced”.
With Ivermectin, the Mortality entry in the data set with zebrafish embryos (0.5 µM) is on record as “mortality disappeared”. Moreover, the “Effect on body length” value with zebrafish embryos (1 µM screening) is given as “highest reduction”. Further, in the data set on zebrafish embryos, the “Mortality rate (MR)” value is “over 10%” and the “Overall effect on embryonic development / cardiovascular system” value is listed as “severely affected embryonic development”. In addition, the “Effects on larval behavior” value with zebrafish larvae (0.5 µM) is given as “still observed effects”. The “Effect on swimming behavior” value with zebrafish larvae is recorded as “most severe effects”.
